Measurements: patent publication US5100462A, “Method of counteracting ethylene response by treating plants with diazocyclopentadiene and derivatives thereof” (North Carolina State University, priority 1991, dated 1992)

Assays:
[1] = system: ethylene binding site in tobacco leaves; experiment: Ethylene binding (14C-ethylene) in tobacco leaves, incl. Scatchard DACP-ethylene competition; set-up: species or system Nicotiana tabacum L.; settings: for Binding (% of untreated control), Tobacco leaves, Dark / Binding (% of untreated control), Tobacco leaves, Light: measured 48 hours after exposure
Description: (§1) Plant material was exposed to ^14 C-ethylene in the presence or absence of unlabeled ethylene. Usually exposure was for two hours. After this time, material was aired for two minutes and placed in 250 or 500 ml jars containing mercury perchlorate in liquid scintillation vials which also contained fiberglass filter to increase the surface area for 24 hours. The vials were then removed, scintillation fluid added and the samples counted in a liquid scintillation counter. All measurements were corrected for unbound ethylene. When the number of binding sites inactivated by DACP in the light were desired, samples were aired 48 hours before measuring ethylene binding to allow the DACP not undergoing a light reaction to diffuse away.
(§2) Experiments in the Examples below were carried out under normal laboratory fluorescent lights. The light intensity was 560 lux at the laboratory bench level. Normally treatment was inside 2.5 liter desiccators and the amount of light reaching the plant material was measured to average 448 lux or 80% of the incident light. When more light was needed, desiccators were moved to a position where the intensity was 2700 lux outside the desiccators. The amount of light reaching the plant material was measured to be 2160 lux.
Tobacco leaves (Nicotiana tabacum L.) were grown in a greenhouse. Leaves were harvested when approximately 10 cm in length, the midrib removed and allowed to stand overnight for wound ethylene to subside. After incubating tobacco leaves with DACP for three hours under fluorescent lights at 448 lux of fluorescent light, some of the ethylene binding site present, as assayed by ^14 C-labeled ethylene disappears. As the concentration of DACP increases, the amount of binding site remaining decreases. The curve (FIG. 1) appears to be biphasic with a decrease of 80% of binding between 0 and 40 μl/l at DACP. Addition of an additional 80 μl/l of DACP reduced binding further 10%. […] In all previous cases, compounds diffused from the binding site with a half life of three to six hours.
(§3) Scatchard plots are used to determine the binding constants of compounds. An underlying assumption using this method is that the reaction is reversible. Using DACP in the light leads to an irreversible complex and the Scatchard plot is not valid. It can be made and compared with the competition in the dark to evaluate the relative effectiveness of the compound in the light versus dark. FIGS. 6 and 7 represent plots for tobacco leaves and mung bean sprouts in the light and in the dark. It can be seen from these two figures that there are apparently two classes of sites present in both tobacco leaves and mung bean sprouts. The values are much lower in the light which would be expected if the site is being permanently removed. A greater portion of the binding sites appears to be occupied in the competition experiments (FIGS. 6, 7) than in experiments in which added ethylene is not present (FIGS. 3, 4, 5).

mung bean seedlings = experiment: Growth inhibition of mung bean seedlings by ethylene; assay type: in vivo, Vigna radiata L.
Description: Mung beans (Vigna radiata L.) were germinated in the dark for four days. At this point 10-12 sprouts were placed in 3 liter containers, and treated with DACP and ethylene as indicated in the individual Examples below. Ethylene was changed each day and seedlings were retreated with DACP at seven days. The height was measured at ten days. […]

Tomato fruit = experiment: Tomato ripening (red/green reflectance ratio); assay type: in vivo, Lycopersicon esculentum, Mill; settings: 25° C.
Description: Plant Material. Tomatoes (Lycopersicon esculentum, Mill) were obtained from a wholesale distributor.
Chemicals. DACP was prepared as previously described and kept as a 4-8% solution in hexane. Treatment was in a 3 l container. DACP was pipetted as a hexane solution onto paper towel to facilitate evaporation. After sealing, the containers were kept in darkness or exposed to 448 lux of fluorescent light for 24 hours. After 24 hours, containers were aired out for 24 hours. Those containers kept in darkness were aired in darkness. Subsequently the ethylene treatment was started and all samples were kept in 448 lux of fluorescent light. The gas phase was changed each day.
Ripening. Ripening was measured with an Agtron reflectance spectrophotometer (Magnson Engineers, Inc., Instruments Division, San Jose, Calif.) which measures the ratio of red/green light reflected from the tomato.

beans = experiment: Ethylene-induced leaf abscission in beans; assay type: in vivo, Phaseolus vulgaris; settings: DACP vapor
Potted poinsettia = experiment: Protection of potted poinsettia from ethylene; assay type: in vivo, Euphorbia pulcherima; settings: volatile DACP
Description: Potted poinsettia (Euphorbia pulcherima) is treated with volatile DACP in the same manner as described above, and then exposed to ethylene to determine if the DACP would protect the poinsettia from the ethylene.

Cut purple petunias = experiment: Cut flower longevity, petunias; assay type: in vivo, Petunia hydrida; settings: volatile DACP
Description: Cut purple petunias (Petunia hydrida) are treated with volatile DACP in the same manner as described above.

[2] = system: ethylene binding site in mung bean sprouts; experiment: Ethylene binding (14C-ethylene) in mung bean sprouts, incl. Scatchard DACP-ethylene competition; set-up: species or system Vigna radiata L.; settings: for Binding (% of untreated control), Mung bean sprouts, Dark / Binding (% of untreated control), Mung bean sprouts, Light: measured 24 hours after exposure
Description: as §1
Mung beans (Vigna radiata L.) were germinated in the dark for four days. At this point 10-12 sprouts were placed in 3 liter containers, and treated with DACP and ethylene as indicated in the individual Examples below. Ethylene was changed each day and seedlings were retreated with DACP at seven days. The height was measured at ten days. Light was 560 lux throughout the experiment after the four-day germination in the dark.
as §2, §3

Carnation = experiment: Cut flower longevity, carnation; assay type: in vivo, Dianthus caryophyllus; settings: volatile DACP
ethylene binding = settings: Plant Growth Reg. 9, 157-164 (1990); cited from earlier work
[3] = DARK, DACP 120 ul/l + 10 μl/l E
[4] = DARK, DACP 120 ul/l as a gas, no ethylene
[5] = LIGHT, DACP 120 ul/l + 10 μl/l E
[6] = LIGHT, DACP 120 ul/l + 100 μl/l E
[7] = LIGHT, DACP 120 ul/l as a gas, no ethylene

SMILES: [N-]=[N+]=C1C=CC=C1 [Diazocyclopentadiene]
- Binding (% of untreated control), Tobacco leaves, Dark [1]: 100 % of untreated control
- Binding (% of untreated control), Tobacco leaves, Light [1]: 27 % of untreated control
- further reduction of binding ([1]; additional 80 μl/l of DACP, three hours at 448 lux (FIG. 1), 180 min): 10%
- decrease of binding ([1]; between 0 and 40 μl/l DACP, three hours at 448 lux fluorescent light (FIG. 1), 180 min): 80%
- half life of reappearance of the binding site after DACP is removed ([1]; in the dark, 245 μl/l (gas) DACP (FIG. 2A)): about 15 hours
- binding site after incubation with DACP ([1]; incubated in darkness, 245 μl/l (gas) DACP (FIG. 2A)): most of the binding site disappears
- reappearance of the binding site after DACP is removed ([1]; leaves preincubated in the light before removing the DACP (FIG. 2A)): does not reappear or if it does it does so only very slowly over many days
- amount of binding site after 24 additional hours ([1]; same leaves re-assayed without retreating with DACP): appears to remain constant
- amount of binding site inactivated, prebound DACP versus DACP present during the light treatment ([1]; two hours DACP in the dark, aired one hour, then light): No difference
- % of Control (mung bean seedlings; [3]): 16 % of Control
- Height (cm) (mung bean seedlings; [3]): 1.5 cm
- % of Control (mung bean seedlings; [4]): 94 % of Control
- Height (cm) (mung bean seedlings; [4]): 9.0 cm
- % of Control (mung bean seedlings; [5]): 80 % of Control
- Height (cm) (mung bean seedlings; [5]): 7.6 cm
- % of Control (mung bean seedlings; [6]): 53 % of Control
- Height (cm) (mung bean seedlings; [6]): 5.0 cm
- Height (cm) (mung bean seedlings; LIGHT, DACP 120 ul/l + 1000 μl/l E): 2.3 cm
- % of Control (mung bean seedlings; LIGHT, DACP 120 ul/l + 1000 μl/l E, 14400 min): 3.6 % of Control
- % of Control (mung bean seedlings; [7]): 93 % of Control
- Height (cm) (mung bean seedlings; [7]): 8.9 cm
- time by which all of the tomatoes were nearly ripe (Tomato fruit; DACP in the light): ≤ 25 days
- ratio of red to green (Tomato fruit; single exposure in the light, whether or not 1000 μl/l of ethylene was present (FIG. 8)): remained constant for ten days
- effect on ripening (Tomato fruit; DACP applied in the dark): only a small effect
- time to ripe as indicated by the red/green ratio (Tomato fruit; DACP applied in the dark): ripe in ten days
- ethylene-induced leaf abscission (beans): found to prevent ethylene-induced leaf abscission
- signs of injury from DACP (Potted poinsettia): No signs of injury
- death of the flowers (cyanthum) in response to ethylene (Potted poinsettia; then exposed to ethylene): died in response to the ethylene in the controls but not on the DACP treated plants
- longevity of the flower (Cut purple petunias): found to increase
- time in which most of the light reaction has occurred ([2]; 448 lux, presaturated site (FIG. 3)): ≤ 30 min
- Binding (% of untreated control), Mung bean sprouts, Dark [2]: 100 % of untreated control
- Binding (% of untreated control), Mung bean sprouts, Light [2]: 24 % of untreated control
- time in which most of the decrease in binding occurs (diffusion to the binding site) ([2]; after release as a liquid (FIG. 3)): ≤ 15 min
- time for 1/2 of the binding site to be regenerated ([2]; in darkness, 245 μl/l (gas) DACP (FIG. 2B)): about two
- longevity of the flower (Carnation): likewise found to increase

SMILES: C=C [Ethylene]
- Binding (% of untreated control), Tobacco leaves, Dark [1]: 100 % of untreated control
- Binding (% of untreated control), Tobacco leaves, Light [1]: 100 % of untreated control
- % of Control (mung bean seedlings; DARK, 10 μl/l E): 16 % of Control
- Height (cm) (mung bean seedlings; DARK, 10 μl/l E): 1.5 cm
- % of Control (mung bean seedlings; LIGHT, 10 μl/l E): 16 % of Control
- Height (cm) (mung bean seedlings; LIGHT, 10 μl/l E): 1.5 cm
- % of Control (mung bean seedlings; LIGHT, 1000 μl/l E): 16 % of Control
- Height (cm) (mung bean seedlings; LIGHT, 1000 μl/l E): 1.5 cm
- 1/2 maximum of ethylene for growth inhibition (Lineweaver-Burk plot) (mung bean seedlings; after exposure to DACP): 50 μl/l
- Binding (% of untreated control), Mung bean sprouts, Dark [2]: 100 % of untreated control
- Binding (% of untreated control), Mung bean sprouts, Light [2]: 100 % of untreated control

SMILES: C1=CCC=C1 [cyclopentadiene]
- blocking of ethylene binding (ethylene binding): effective blocking agent for ethylene binding
